Data reported in PMC9932578 (Clinical Cancer Research, 2022).

How the values were obtained:
[1] = 60 mg QD NHL cohort, n = 1/18
[2] = test system: gene expression (Hallmark gene sets); assay: RNA-seq differential expression and GSEA in bone marrow aspirates; type: in vivo, human

## CCNC(=O)C[C@@H]1N=C(c2ccc(Cl)cc2)c2cc(OC)ccc2-n2c(C)nnc21 [molibresib]
[1]
  DLT: thrombocytopenia: 6%
[2]; across all 13 patients
  share of differentially expressed genes downregulated (289/398): 72.6%
[2]; in vivo
  differentially expressed genes shared between NRs and responders: 61 genes
[2]; non-responders (NR)
  genes with significant differential expression: 884 genes
[2]; responders (CR + PR)
  genes with significant differential expression: 107 genes
